Measured values from US20250171419A1, “NOVEL NICOTINAMIDE PHOSPHORIBOSYLTRANSFERASE INHIBITORS AND USES THEREOF” (Heidelberg Pharma Research GmbH, priority 2023, published 2025).
Where a name gives a salt, the structure may show the parent alone.

Tests used:
[1] = system: murine renal cell carcinoma model RENCA; details: cited from earlier work
[2] = Acid hydration stability (TFA, 37° C); format: physicochemical; details: for tendency of cyanoguanidine group to hydration and degradation: pH values below 2, formation of guanylurea intermediates
From the text: Since the lysosomal pH is acidic and contains numerous hydrolases, NAMPT inhibitors bearing cyanoguanidines may therefore be degraded in the lysosome. […] The product was confirmed by mass spectrometry and NMR analysis. The inhibitor C42a was designed as an alternative to cyanoguanidine compounds containing urea as non-hydratable group.

[3] = system: human breast and lung cancer cell line-derived in vivo models; details: cited from earlier work
[4] = system: solid tumors; details: cited from earlier work
[5] = format: in vitro ADME, human
Protocol: The test compound was incubated at a concentration of 17.7 μM in a mixture of human liver lysosomal extract (tebu-bio, Seikisui Xenotech, Ref: H0610.L) and 1× catabolism buffer (tebu-bio, Seikisui Xenotech, Ref: K5200) for […] at 37° C. Samples were taken at 0, 2, 4, 24, 48, 72, 120, and 168 hours. Control samples without lysosomal extract were also set up under the same conditions as the test sample. All measurements and samples were taken in duplicate.
To measure the reaction, the compound was quenched by adding 380 μL of internal standard buffer (30 ng/mL of internal standard in ACN) to 20 μL of the sample. An amanitin-stable isotope-labelled analogue was used as the internal standard.
22 μL of the quenched sample was analysed using UPLC-MS-MS QTrap 5500 (Column: Waters ACQUITY UPLC BEH Amide, […], 2.1×100 mm, product code: 186004801). This assay was related to compound 113. Compound 113 was expected to be the main degradation compound after lysosomal enzymatic digestion and was used as a reference for the detection of catabolites after digestion in the HPLC-MS analysis.
The ion fragments detection method was multiple reaction monitoring (MRM). In this method, the mass is measured by a tandem mass spectrometer where the initial molecular ion is selected as initial mass. […]

[6] = system: L540 CD30+ cell line; assay: Cytotoxicity in L540 CD30+ cell line, CellTiter-Glo 2.0 readout after 96 h; format: cell-based; details: FIG. 10 C
Protocol: L540 CD30^+ cell lines were used for the study. 2×10^3 Cells were added to each well of a 96-well plate, but for the blank wells. Test compounds and controls were added to their corresponding lanes in a 7-step 1:5 dilution series starting with the concentration of 1×10^−5 M for non-conjugated inhibitors and 1×10^−7 M for ADCs and free monoclonal antibody. The dilution scheme was prepared in triplicates for each sample. Cells were incubated at 37° C. at 5% CO2 for 96 h in an evaporation chamber. Readout was performed using CellTiter-Glo 2.0 assay, according to the kit instructions (Promega; Cat #G9242).
2×10^3 Cells were added to each well of a 96-well plate, but for the blank wells. […] Cells were incubated at 37° C. at 5% CO2 for 96 h in an evaporation chamber. Readout was performed using CellTiter-Glo 2.0 assay, according to the kit instructions (Promega; Cat #G9242).
2×10^3 Cells were added to each well of a 96-well plate, but for the blank wells. […] Cells were incubated at 37° C. at 5% CO2 for 96 h in an evaporation chamber. Readout was performed using CellTiter-Glo® 2.0 assay, according to kit instructions (Promega; Cat #G9242).

SMILES: O=C(/C=C/c1cccnc1)NCCCCC1CCN(C(=O)c2ccccc2)CC1 [Daporinad, (E)-N-[4-(1-benzoylpiperidin-4-yl)butyl]-3-(pyrldine-3-yl)-acrylamide]
- in vivo efficacy [1]: In vivo efficacy of daporinad was shown

SMILES: N#C/N=C(\NCCCCC1(O)CCN(C(=O)c2cccc(N)c2)CC1)Nc1cccnc1 [C22a, (E)-1-(4-(1-(3-aminobenzoyl)-4-hydroxypiperidin-4-yl)butyl)-2-cyano-3-(pyridin-3-yl)guanidine]
- tendency of cyanoguanidine group to hydration and degradation [2]: tend towards hydration and degradation

SMILES: N#CNC(=Nc1ccncc1)NCCCCCCOc1ccc(Cl)cc1 [CHS-828, N-[6-(4-chlorophenoxy)hexyl]-N′-cyano-N″-4-pyridinyl-guanidine]
- cytotoxic effects in vitro and in vivo [3]: highly cytotoxic effects
- observed responses in the clinical trials [4]: stable disease

SMILES: Nc1cccc(C(=O)N2CCC(O)(CCCCNC(=O)N3Cc4ccccc4C3)CC2)c1 [C42a, N-(4-(1-(3-aminobenzoyl)-4-hydroxypiperidin-4-yl)butyl)isoindoline-2-carboxamide TFA salt]
- time stable under the conditions that triggered the hydration of 36 ([2]; identical conditions as those that triggered the hydration of 36): more than 2 weeks
- hydration at pH values below 2 ([2]; pH values below 2 at 37° C for more than 2 weeks): no hydration

SMILES: N#C/N=C(\NCCCCC1CCN(C(=O)c2cccc(N)c2)CC1)Nc1cccnc1 [compound 36, (E)-1-(4-(1-(3-aminobenzoyl)piperidin-4-yl)butyl)-2-cyano-3-(pyridin-3-yl)guanidine]
- hydration of the cyanoguanidine moiety under acid pH ([2]; acid pH): undergoes hydration of the cyanoguanidine moiety to guanylurea
- acid hydration reaction involving TFA, pH above 2 ([2]; pH values above 2, after 48 hours at 37° C): the reaction did not occur
- acid hydration reaction involving TFA, pH below 2 ([2]; pH values below 2, within 24 hours at 37° C): guanylurea 113 was obtained in excellent yield
- tendency of cyanoguanidine group to hydration and degradation [2]: tend towards hydration and degradation
- degradation in the absence of lysosomal enzymes [5]: no degradation is observed
- degradation versus generation of the hydrated product 113 [5]: inversely correlates

SMILES: NC(=O)/N=C(\NCCCCC1CCN(C(=O)c2cccc(N)c2)CC1)Nc1cccnc1 [compound 113, (E)-1-(((4-(1-(3-aminobenzoyl)piperidin-4-yl)butyl)amino)(pyridin-3-ylamino)methylene)urea]
- toxicity in L540 cells compared to inhibitor 36 [6]: significantly reduced toxicity
